Results published in PMC5397059, “Design, synthesis and structure-activity relationship study of wollamide B; a new potential anti TB agent” (PLoS ONE, 2017).
Read-outs that look alike come from different tables or passages of the source. Non-standard residues stand in square brackets, D forms with d. Residues, ends and D or L forms follow the SMILES beside them. NMeN = CN[C@@H](CC(N)=O)C(=O)O; NMeL = CN[C@@H](CC(C)C)C(=O)O; dNMeL = CN[C@H](CC(C)C)C(=O)O; NMeV = CN[C@H](C(=O)O)C(C)C; dOrn = NCCC[C@@H](N)C(=O)O

Key:
[1] = Chemi-Luminescent Nitrogen Detection (CLND) kinetic solubility assay; type: physicochemical; settings: phosphate buffered saline, pH 7.4; kinetic aqueous solubility by CLND; read-out: Solubility
Experimental: GSK in-house kinetic solubility assay: 5 μL of 10mM DMSO stock solution diluted to 100 uL with pH7.4 phosphate buffered saline, equilibrated for 1 hour at room temperature, filtered through Millipore Multiscreen HTS-PCF filter plates (MSSL BPC).
The filtrate is quantified by suitably calibrated flow injection CLND. The standard error of the CLND solubility determination is ±30 μM, the upper limit of the solubility is 500 μM when working from 10 mM DMSO stock solution.

Chrom logD assay = type: physicochemical; settings: pH 7.4, read-out: Log D
Experimental: The Chromatographic Hydrophobicity Index (CHI) values were measured using a reversed phase HPLC column (50 x 2 mmx 3 μMGemini NX C18, Phenomenex, UK) with fast acetonitrile gradient at starting mobile phase of 100% pH = 7.4 buffer. CHI values are derived directly from the gradient retention times by using a calibration line obtained for standard compounds. The CHI value approximates to the volume % organic concentration when the compound elutes. CHI is linearly transformed into ChromlogD by the formula: ChromlogD=0.0857CHI−2.00
The average error of the assay is ±3 CHI unit or ±0.25 ChromlogD.

human serum albumin = human serum albumin (Homo sapiens, UniProt P02768); test: Human serum albumin (HSA) binding assay; type: in vitro ADME; settings: human serum albumin binding
Sequence of human serum albumin (P02768 25-609): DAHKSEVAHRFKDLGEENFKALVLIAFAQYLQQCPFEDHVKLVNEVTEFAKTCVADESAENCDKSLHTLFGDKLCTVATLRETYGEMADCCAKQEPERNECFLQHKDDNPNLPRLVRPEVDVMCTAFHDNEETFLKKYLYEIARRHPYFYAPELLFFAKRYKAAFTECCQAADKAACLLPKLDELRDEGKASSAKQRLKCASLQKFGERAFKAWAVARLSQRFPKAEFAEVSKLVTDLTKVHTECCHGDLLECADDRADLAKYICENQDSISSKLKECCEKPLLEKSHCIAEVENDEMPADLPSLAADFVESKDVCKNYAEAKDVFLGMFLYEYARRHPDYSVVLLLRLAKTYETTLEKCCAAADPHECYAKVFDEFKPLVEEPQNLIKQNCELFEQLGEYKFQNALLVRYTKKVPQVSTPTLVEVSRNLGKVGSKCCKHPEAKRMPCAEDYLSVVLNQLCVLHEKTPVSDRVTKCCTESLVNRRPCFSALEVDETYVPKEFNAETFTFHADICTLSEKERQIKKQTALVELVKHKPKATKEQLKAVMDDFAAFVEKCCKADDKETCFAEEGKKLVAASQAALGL
Experimental: HSA binding assay was performed according to the method described by Valko K, et al. The basic principle of the measurements is the determination of gradient retention times of compounds on immobilized HSA column and converting these retention times to the appropriate property values using calibration. The peaks are detected and identified by UV. Calibration sets of compounds are measured before each run for which the HSA binding values are known. The retention times of the calibration set of compounds are plotted against these known values. The slope and the intercept of the obtained straight lines are used to calculate the HSA binding for the unknown compounds.

[2] = Artificial membrane permeability assay; type: in vitro ADME; settings: PAMPA, pH 7.4; passive artificial membrane permeability; read-out: Permeability
Experimental: A 8% L-a-phosphatidylcholine (EPC) in 1% cholesterol decane solution and a 1.8% EPC in cholesterol decane solution were prepared. The lipid solution was then aliquoted into 4 mL capped vials, sealed with parafilm and stored in-20°Cfreezer. The lipid solution was then transferred from 4 mL vial into 96-well half area plate (130μL/well) for daily assay usage. An additional 50 mM phosphate buffer with 0.5% encapsin, pH at 7.4 was prepared. The assay was run by the Biomek FX and Biomek software. The assay procedure is written under the Biomek software. For one batch assay, it can test two 96-well sample plates with at least one standard on each sample plate. The total assay time was about 4 hours. 3.5 μL of lipid solution were added to the filler plate, shaken for 12 seconds, and 250 μL of buffer were added to donor side and 100 μL to the receiver side. The assay plate was shaken for 45 min before adding the compounds. The test compounds (2.5 μL) were added to the donor side. The assay was run as replicates: Assay plates1 and 2 tested the sample plate 1; assay plates 3 and 4 tested the sample plate 2. The assay plates were then incubated and shaken for 3 hours at room temperature.
The assay samples were transferred to the HPLC analysis plates and 100 μL of receiver solution were aspirated and transferred to the receiver for analysis. Similarly, another 100 μL from the donor solution were transferred to the donor analysis plate.
Compound concentration was measured by HPLC at different time-points and permeability was established as nm/sec.

[3] = Intrinsic clearance (CLint) assay, human liver microsomes; type: in vitro ADME; settings: for CLint Human: human liver microsomes; for half-life at 0.5 µM: human, pooled human liver microsomes, pH 7.4, human liver microsomes, read-out: Microsomal t1/2 Human; for % LBF Human: liver blood flow; for CLpred Human: predicted metabolic clearance
Experimental: (§1) Pooled mouse and human liver microsomes are purchased from Xenotech. Microsomes (final protein concentration 0.5 mg/mL, MgCl2 (final concentration = 5 mM) and test compound (final substrate concentration = 0.5] M; final DMSO concentration = 0.5%) in 0.1 M phosphate buffer pH 7.4 are pre-incubated at 37°C prior to the addition of NADPH (final concentration = 1 mM) to initiate the reaction. The final incubation volume is 600 μL.
(§2) Control incubation is included for each compound tested where 0.1 M phosphate buffer pH 7.4 is added instead of NADPH (minus NADPH). One control compound is included with each species. All incubations are performed singularly for each test compound. Each compound is incubated for 45 minutes and samples (100 μL) of incubate are taken at 0, 5, 15, 30 and 45 min. The control (minus NADPH) is sampled at 30 min only. The reactions are stopped by the addition of sample to 200 μL Acetonitrile: Methanol 3:1 containing internal standard. The terminated samples are centrifuged at 2,500 rpm for 20 min at 4°C to precipitate the protein. Quantitative analysis: following protein precipitation, the samples were analyzed using specific LC-MS/MS conditions. Data analysis: from a plot of ln peak area ratio (compound peak area/internal standard peak area) against time, the gradient of the line was determined. Subsequently, half-life and intrinsic clearance were calculated using the equations below: Eliminationrateconstant(K)=(−gradient) Halflife(t1/2)(min)=0.693/K Cli(mL/min/gprotien)=V×0.693/t1/2 WhereV=Incubationvolume(mL/gmicrosomalprotien)

[4] = Intrinsic clearance (CLint) assay, mouse liver microsomes; type: in vitro ADME; settings: for % LBF Mouse: liver blood flow; for CLint Mouse: mouse liver microsomes; for half-life at 0.5 µM: mouse, pooled mouse liver microsomes, pH 7.4, read-out: Microsomal t1/2 Mouse; for CLpred Mouse: predicted metabolic clearance
Experimental: as §1, §2

[5] = amide bond, 18-membered ring, HATU/HOBt/DIEA
[6] = reversed phase HPLC column (Gemini NX C18)

Compound | solubility kinetic at 1 h [1] [µg/mL] | chromatographic logD (Chrom logD assay; [6]) | % HSA (human serum albumin) [%] | Papp at 3 h [2] [×10⁻⁶ cm/s] | CLint Human [3] [mL/min/g tissue] | half-life at 0.5 µM [3] [min] | % LBF Human [3] [%] | CLpred Human [3] [mL/min/kg] | % LBF Mouse [4] [%] | CLint Mouse [4] [mL/min/g tissue] | half-life at 0.5 µM [4] [min] | CLpred Mouse [4] [mL/min/kg] | chromatographic logD (Chrom logD assay) | ring closure, isolated yield ([5]; from H-dPhe(4-Cl)-Ile-dOrn(Boc)-dOrn(Boc)-Trp(Boc)-Leu-OH) [%] | ring closure, isolated yield ([5]; from H-Asn(Trt)-dOrn(Boc)-Trp(Boc)-dPhe(4-Cl)-dLeu-Val-OH) [%] | ring closure, isolated yield [5] [%] | ring closure, isolated yield ([5]; from H-dLeu-Val-Asn(Trt)-dOrn(Boc)-Phe(4-OMe)-Leu-OH) [%]
CC(C)C[C@H]1NC(=O)[C@H](CC(C)C)N(C)C(=O)[C@H](Cc2c[nH]c3ccccc23)NC(=O)[C@@H](CCCN)NC(=O)[C@H](CC(N)=O)NC(=O)[C@H](C(C)C)N(C)C1=O [Compound 24c] (cyclo(N[dOrn]W[NMeL][dL][NMeV])) | ≥ 217 | 2.18 | 87.02 | < 1 | 3.51 | 37.3 | 82.70 | 14.90 | 42.0 | 1.79 | 15.7 | 52.90 |  |  |  |  | 
CC[C@H](C)[C@@H]1NC(=O)[C@@H](CC(C)C)NC(=O)[C@H](CC(C)C)NC(=O)[C@H](Cc2c[nH]c3ccccc23)NC(=O)[C@@H](CCCNC(=N)N)NC(=O)[C@H](CC(N)=O)NC1=O [Compound 13c] (cyclo(IN[dR]WL[dL])) | ≥ 189 |  | 87.55 | 1.1 | 7.44 | 7.4 | 91.01 | 16.38 | 29.00 | 1.01 | 63 | 36.60 | 2.05 |  |  |  | 
CC[C@H](C)[C@@H]1NC(=O)[C@@H](CC(C)C)NC(=O)[C@H](CC(C)C)NC(=O)[C@H](Cc2c[nH]c3ccccc23)NC(=O)[C@@H](CCCN)NC(=O)[C@H](CO)NC1=O [Compound 10c] (cyclo(IS[dOrn]WL[dL])) | ≥ 228 | 2.16 | 86.47 | < 1 | 9.77 | 5.63 | 93.00 | 16.70 | <16.3 | <0.48 | > 139 | <20.50 |  |  |  |  | 
CC(C)C[C@H]1NC(=O)[C@H](CC(C)C)N(C)C(=O)[C@H](Cc2c[nH]c3ccccc23)NC(=O)[C@@H](CCCN)NC(=O)[C@H](CC(N)=O)N(C)C(=O)[C@H](C(C)C)NC1=O [Compound 23c] (cyclo([NMeL][dL]V[NMeN][dOrn]W)) | ≥ 174 | 2 | 82.21 | < 1 | 3.19 | 17.2 | 81.29 | 14.63 | 30.00 | 1.06 | 63 | 37.80 |  |  |  |  | 
CC(C)C[C@@H]1NC(=O)[C@H](Cc2c[nH]c3ccccc23)NC(=O)[C@@H](CCCN)NC(=O)[C@H](CC(N)=O)N(C)C(=O)[C@H](C(C)C)NC(=O)[C@@H](CC(C)C)N(C)C1=O [Compound 25c] (cyclo(L[dNMeL]V[NMeN][dOrn]W)) | ≥ 221 | 2.25 | 82.97 | < 1 | <0.40 | > 139 | <35.08 | <6.35 | <16.3 | <0.48 | > 139 | <20.50 |  |  |  |  | 
CC[C@H](C)[C@@H]1NC(=O)[C@@H](Cc2ccc(Cl)cc2)NC(=O)[C@H](CC(C)C)NC(=O)[C@H](Cc2cn(C(=O)OC(C)(C)C)c3ccccc23)NC(=O)[C@@H](CCCNC(=O)OC(C)(C)C)NC(=O)[C@@H](CCCNC(=O)OC(C)(C)C)NC1=O [cyclo(D-Phe (4-Cl)-Ile-D-Orn(Boc)-D-Orn(Boc)-Trp(Boc)-Leu)] |  |  |  |  |  |  |  |  |  |  |  |  |  | 55 |  |  | 
CC(C)C[C@H]1NC(=O)[C@@H](Cc2ccc(Cl)cc2)NC(=O)[C@H](Cc2cn(C(=O)OC(C)(C)C)c3ccccc23)NC(=O)[C@@H](CCCNC(=O)OC(C)(C)C)NC(=O)[C@H](CC(=O)NC(c2ccccc2)(c2ccccc2)c2ccccc2)NC(=O)[C@H](C(C)C)NC1=O [cyclo(Asn(Trt)-D-Orn(Boc)-Trp(Boc)-D-Phe(4-Cl)-D-Leu-Val)] |  |  |  |  |  |  |  |  |  |  |  |  |  |  | 54 |  | 
cyclo(D-Phe(4-Cl)-D-Orn(Boc)-Asn(Trt)-Val-D-Leu-Leu) |  |  |  |  |  |  |  |  |  |  |  |  |  |  |  | 43 | 
COc1ccc(C[C@@H]2NC(=O)[C@@H](CCCNC(=O)OC(C)(C)C)NC(=O)[C@H](CC(=O)NC(c3ccccc3)(c3ccccc3)c3ccccc3)NC(=O)[C@H](C(C)C)NC(=O)[C@@H](CC(C)C)NC(=O)[C@H](CC(C)C)NC2=O)cc1 [cyclo(D-Leu-Val-Asn(Trt)-D-Orn(Boc)-Phe(4-OMe)-Leu)] |  |  |  |  |  |  |  |  |  |  |  |  |  |  |  |  | 41
